Measurements from patent US10071042B2, “External dermatological agent for anti-ageing” (Hayashibara Co., Ltd., priority 2014, dated 2018).
Like-named read-outs stand apart in the source and are kept apart here. Marks after values point to notes of the source that are not given here.

Key:
Format in all cases: cell-based
[1] = test system: normal human epidermal keratinocytes; experiment: Differentiation of keratinocytes, microscopic morphology score (Experiment 1-1); details: 3 days culture, mean of triplicate
Source text: To 12-well plates, one milliliter of a cell suspension with a cell density of 2.5×10^4 cells/mL prepared by suspending normal human epidermal keratinocytes in EpiLife, a product name of a medium for keratinocytes containing a growth factor, commercialized by Life Technologies, Inc., 9800 Medical Center Drive Rockville, Md. 20850 USA; followed by culturing the cells until prevailing up to about ½ of the bottom surface of each well. Thereafter, the culture medium in each well was replaced with a medium for keratinocytes free of growth factor and cultured for two days, and then replaced with a fresh medium for keratinocytes, which contained any one of the test substances in Table 1 at respective concentrations as indicated in the table, and then cultured for three days. As a control, a culture system was provided similarly as above except for not adding any of the test substances. Under a microscopic condition, cell morphology was observed and evaluated for the keratinocyte-differentiation-inducing ability based on the following criteria:
Score 1: The number of cells in a flattened form against the total cells is 50% or lower.
Score 2: The number of cells in a flattened form against the total cells is 50% or more.
Score 3: Nearly all of the cells are in an irregular shape and there appears some cells with gloss.
It means that the higher the score the more the cell differentiation was accelerated. Each experiment system was performed in a triplicate manner, followed by calculating a mean value for each system.

[2] = test system: normal human epidermal keratinocytes; experiment: Production level of cornified envelope, absorbance 310 nm (Experiments 1-2 and 7); details: for Production level (%) of cornified envelope: control = 100%
Method: Normal human epidermal keratinocytes were cultured similarly as in Experiment 1-1, except for adding the test substances listed in Table 2 at prescribed concentrations to the cells. The resulting cultured cells were washed once with phosphate buffered saline (PBS), followed by scrapping off the cells adhered to each culture plate by adding 0.5 mL of PBS to each well of the plates. The cell suspensions thus obtained were added with 10% sodium lauryl sulfate solution in a volume of ¼ of each of the suspension volumes, followed by stirring and freezing the resulting mixtures at −80° C. After thawing, the resulting mixtures were centrifuged at 12,000×g for 15 min, followed by collecting the cell precipitates which were then washed once with phosphate buffered saline containing 2% sodium lauryl sulfate. The resulting mixtures were centrifuged at 12,000×g for 15 min, followed by collecting the cells and suspending the collected cells with phosphate buffered saline containing 2% sodium lauryl sulfate and 20 mM dithiothreitol. The resulting cell suspensions were boiled in a boiling water bath for one hour and measured for absorbance at a wavelength of 310 nm to determine the production level of cornified envelope for each test system added with any of the test substances. A control system was provided similarly as above except for not adding any one of the test substances to the system, and determined for absorbance at a wavelength of 310 nm similarly as in the above to be regarded as 100%. The production level of cornified envelope for each test substance was relatively evaluated based on the following equation. Equation: Production level of cornified envelope (Relative value (%))=[(Absorbance of a sample with any one of test substances)/(Absorbance of Control)]×100
The experiment was repeated three times, and the data was subjected to the Dunnett's multiple comparisons with Control. The symbol “*” means a level of significance of p<0.01.
Except for adding the test substances listed in Tables 8 and 9 at respective concentrations shown in the tables, experiments were respectively conducted in accordance with the methods in Experiments 1-2 and 1-3 disclosed in the specification to examine the effect of the combination use of epigallocatechin gallate, which is used as an antioxidant for cosmetics, and sodium adenosine N1-oxide 5′-phosphate on the action of accelerating the cornified-envelope production and the action of enhancing the transglutaminase activity of sodium adenosine N1-oxide 5′-phosphate. A control system was provided and similarly treated as above except for not adding any test substance and was determined for both the increase rates of cornified-envelope production level and the transglutaminase activity, based on the following equations. Equation: Increase rate of cornified envelope production level (%)={[(Absorbance of a sample with any one of test substances)/(Absorbance of control)]×100}−100 Equation: Increase rate of transglutaminase (%)={[(Absorbance of a sample with any one of test substances)/(Absorbance of control)]×100}−100

[3] = test system: human epidermoid carcinoma cell line A-431; experiment: Tight-junction function, lucifer yellow transmittance (Experiments 2 and 8); details: for Relative transmittance of lucifer yellow (%): control = 100%
Source text: A human epidermoid carcinoma cell line A-431 was suspended in a media, supplemented with any of the test substances disclosed in Table 4 and having respective concentrations as indicated in the table, to give a cell concentration of 1×10^5 cells/mL, and each cell suspension was placed in an insert cup for a 12-well culture plate by two milliliters per well, followed by culturing the cells until reaching a confluent state through over the bottom surface of each well. The inner and the outer cup volumes were adjusted to give two milliliters while checking both the liquid levels of the cups were constant, and lucifer yellow as a model for permeating substance, commercialized by Life Technologies Corporation, CA, USA, was added to each inner cup to give a final concentration of 100 μM. Thereafter, the fluorescent intensities of lucifer yellow in the culture media in both the inner and the outer cups were measured, followed by calculating the percentage of the fluorescent intensity of the outer cup against that of the sum of the outer and the inner cups for use as a transmittance of lucifer yellow with the following equation. Equation: Transmittance of lucifer yellow (%)={(Absorbance of a liquid outside of an insert cup)/[(Absorbance of a liquid inside of the insert cup)+(Absorbance of the liquid outside of the insert cup)]}×100
There was provided a control system prepared similarly as above except for not adding any of the test substances, and the transmittance of lucifer yellow was regarded as 100% for evaluating the reduction of transmittance due to the reinforcement of the function of tight junction, based on the following equation. Equation: Relative transmittance (Relative percentage (%)) of lucifer yellow=[(Transmittance of a sample with any one of test substances)/(Transmittance of control)]×100
The experiment was repeated three times, and the data was subjected to the Dunnett's multiple comparisons with control. The symbol “*” means a level of significance of p<0.01.
Except for adding the test substances listed in Table 11 at respective concentrations shown in the table, experiments were respectively conducted in accordance with the methods in Experiment 2 disclosed in the specification to examine the effect of the combination use with ethylenediaminetetraacetate used as a preservative for cosmetics on the action of reinforcing the function of tight junction by sodium adenosine N1-oxide 5′-phosphate. A control system was provided and similarly treated as above except for not adding any test substance. The reduction rate of relative transmittance of lucifer yellow against that of control based on the following equation. Equation: Reduction rate of relative transmittance of lucifer yellow (%)=100−[(Transmittance of a sample with any one of test substances)/(Transmittance of control)]×100

3T3 = experiment: TG432: In vitro 3T3 NRU Phototoxicity Test
Source text: Based on this, external dermal agent containing any of adenosine N1-oxide 5′-phosphate, analogues thereof, and their salts can be said to be safe.

Row | Molecule | Score ([1]; 200 μM) | Score ([1]; 400 μM) | Score ([1]; 800 μM) | Relative transmittance of lucifer yellow (%) ([3]; 200 μM) | Relative transmittance of lucifer yellow (%) ([3]; 400 μM) | Score ([1]; 40 μM) | optical toxicity (3T3) | further results
1 | 3′-α-Glucosyladenosine [reference compound] | 0.0 | 0.0 | 0.0 | 94.5% | 94.8% | – | – | Production level (%) of cornified envelope ([2]; 800 μM): 104.2%
2 | 3′-α-glucosyl adenosine N1-oxide [3′-α-Glucosyladenosine N1-oxide] | – | – | – | 112.3% | 102.3% | 2.0 | no optical toxicity | Score ([1]; 80 μM): 2.0; Score ([1]; 160 μM): 3.0; Production level (%) of cornified envelope ([2]; 200 μM): 141.4* %
3 | 5′-α-Glucosyladenosine [reference compound] | 0.0 | 0.0 | 0.0 | 94.2% | 82.3% | – | – | –
4 | 5′-α-glucosyl adenosine N1-oxide [5′-α-Glucosyladenosine N1-oxide] | 2.0 | 2.0 | 3.0 | 97.1% | 96.8% | – | no optical toxicity | Production level (%) of cornified envelope ([2]; 600 μM): 148.8* %
5 | Nc1ncnc2c1ncn2[C@@H]1O[C@H](COP(=O)(O)O)[C@@H](O)[C@H]1O [Adenosine 5′-phosphate, reference compound] | – | – | – | 90.6% | 81.6% | – | – | Production level (%) of cornified envelope ([2]; 400 μM): 136.5%
6 | Nc1c2ncn([C@@H]3O[C@H](CO)[C@@H](O)[C@H]3O)c2nc[n+]1[O-] [Adenosine N1-oxide, adenosine N1-oxide] | – | – | – | – | – | 3.0 | no optical toxicity | Score ([1]; 10 μM): 2.0; Score ([1]; 20 μM): 3.0; Production level (%) of cornified envelope ([2]; 25 μM): 178.7* %; Production level (%) of cornified envelope ([2]; 25 μM, listed as adenosine N-1 oxide): about 180%; Relative transmittance of lucifer yellow (%) ([3]; 10 μM): 71.6* %; Relative transmittance of lucifer yellow (%) ([3]; 20 μM): 71.3* %
7 | Nc1ncnc2c1ncn2[C@@H]1O[C@H](CO)[C@@H](O)[C@H]1O [Adenosine, reference compound] | 0.0 | 0.0 | – | 77.1* % | 67.4* % | – | – | Score ([1]; 100 μM): 0.0; Production level (%) of cornified envelope ([2]; 400 μM): 101.7%
8 | Nc1c2ncn([C@@H]3O[C@H](COP(=O)([O-])O)[C@@H](O)[C@H]3O)c2nc[n+]1[O-].[Na+] [Sodium adenosine N1-oxide 5′-phosphate, sodium adenosine N1-oxide 5′-phosphate] | – | – | – | – | – | 3.0 | – | Score ([1]; 10 μM): 2.0; Score ([1]; 20 μM): 3.0; Increase rate of cornified envelope formation level (%) ([2]; 15 μM, single use, increase over control): 2.8%; Production level (%) of cornified envelope ([2]; 25 μM): 178.7* %; Production level (%) of cornified envelope ([2]; 25 μM, listed as adenosine N1-oxide 5′-phosphate): about 180%; Reduction rate of relative transmittance of lucifer yellow (%) ([3]; 10 μM, single use, reduction against control): 21.6%; Relative transmittance of lucifer yellow (%) ([3]; 10 μM): 78.4%; reduction of lucifer yellow transmittance ([3]; 20 μM, compared to control): about 60%; Relative transmittance of lucifer yellow (%) ([3]; 20 μM): 62.3* %; optical toxicity (3T3; OECD test guideline TG432): no optical toxicity
